The values that follow come from BindingDB's records for doi:10.1021/jm00017a010 (Sapienza University of Rome, 1995).

Each structure is given as a SMILES string. pIC50: −log10 of the molar value.

For orientation: pIC50 means the IC50 on a negative log10 scale, so that one unit is a factor of ten. Higher therefore signals a low IC50.

The test has as its target T1, Gag-Pol polyprotein [588-1027]/[588-1147] (Human immunodeficiency virus 1, UniProt P04585).
T1 construct: 588-1027; 588-1147
Put plainly: HIV-1 RT Assay. An excerpt:
The IC50 of reverse transcriptase is the concentration that inhibits 50% of recombinant HIV-1 RT RNA-directed DNA polymerase activity in vitro.

In turn, `CC1(C)C(=O)NC(SC2CCCC2)=N/C1=C/c1ccccc1` [(6E)-2-(cyclopentylsulfanyl)-5,5-dimethyl-6-(phenylmethylidene)-3,4,5,6-tetrahydropyrimidin-4-one] had a pIC50 of less than 5.00.
Still for that read-out and setting: for `CC1(C)C(=O)NC(SC2CCCCC2)=N/C1=C/c1ccccc1` [S-DABO] the value was less than 5.00.
`Cc1cccc(Cc2nc(S)nc(O)c2C)c1` [4-Hydroxy-2-mercapto-5-methyl-6-(3-methylbenzyl)pyrimidine] gave a pIC50 (pH 7.8, 37 °C) of less than 5.00.
`CSc1nc(O)cc(Cc2cccc(C)c2)n1` [S-DABO]: the pIC50 (pH 7.8, 37 °C) is less than 5.00.
Take `CC(C)Sc1nc(Cc2ccccc2)cc(=O)[nH]1` [S-DABO]: the pIC50 (pH 7.8, 37 °C) is less than 5.00.
Turning to `Cc1cccc(Cc2cc(=O)[nH]c(=S)[nH]2)c1` [6-[(3-methylphenyl)methyl]-2-sulfanylidene-1,2,3,4-tetrahydropyrimidin-4-one], the pIC50 (pH 7.8, 37 °C) is less than 5.00.
In turn, `Cc1c(O)nc(S)nc1Cc1ccccc1` [6-benzyl-4-hydroxy-2-mercapto-5-methylpyrimidine] showed a pIC50 (pH 7.8, 37 °C) of less than 5.00.
Compound `CSc1nc(Cc2ccccc2)cc(=O)[nH]1` [S-DABO] had a pIC50 (pH 7.8, 37 °C) of less than 5.00.
